Data as given in patent publication US20230111310A1, “CARBOXYLIC ACID DERIVATIVE-SUBSTITUTED IMINO ARYL COMPOUND, PREPARATION METHOD THEREFOR, HERBICIDAL COMPOSITION AND USE THEREOF” (Qingdao Kingagroot Chemical Compound Co., Ltd., priority 2020, published 2023).

Key:
Test in all cases: Weeding effect in post-emergence stage
Format in all cases: in vivo
Settings in all cases: fresh weight control rate level
Alopecurus japonicus = test system: Alopecurus japonicus
Procedure, shortened: (§1)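 Seeds are sown in soil-filled pots under 0.5-2 cm soil and grown 2 weeks in greenhouse. Plants at 2-3 leaves are sprayed with compound (acetone, Tween 80, 1.5 liter/ha methyl oleate EC, water) at 7.5 to 500 g/ha. Damage is rated 3 weeks later, averaging three repeats.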

Digitaria sanguinalis = test system: Digitaria sanguinalis
Procedure, shortened: as §1

Eleusine indica = test system: Eleusine indica
Procedure, shortened: as §1

Abutilon theophrasti = test system: Abutilon theophrasti
Procedure, shortened: as §1

Setaria viridis = test system: Setaria viridis
Procedure, shortened: as §1

Echinochloa crusgalli = test system: Echinochloa crusgalli
Procedure, shortened: as §1

| SMILES | Weeding effect in post-emergence stage, Alopecurus japonicus (level) (Alopecurus japonicus; Dose 15 g/ha) | Weeding effect in post-emergence stage, Digitaria sanguinalis (level) (Digitaria sanguinalis; Dose 15 g/ha) | Weeding effect in post-emergence stage, Eleusine indica (level) (Eleusine indica; Dose 15 g/ha) | Weeding effect in post-emergence stage, Abutilon theophrasti (level) (Abutilon theophrasti; Dose 15 g/ha) | Weeding effect in post-emergence stage, Setaria viridis (level) (Setaria viridis; Dose 15 g/ha) | Weeding effect in post-emergence stage, Echinochloa crusgalli (level) (Echinochloa crusgalli; Dose 15 g/ha) | other results |
| --- | --- | --- | --- | --- | --- | --- | --- |
| CON(C)C(=O)[C@@H](C)O/N=C/c1cc(-n2c(=O)cc(C(F)(F)F)n(C)c2=O)c(F)cc1Cl [419(R)] | 5 (Level 5: growth control rate is above 85%) | 5 (Level 5: growth control rate is above 85%) | 5 (Level 5: growth control rate is above 85%) | 5 (Level 5: growth control rate is above 85%) | 5 (Level 5: growth control rate is above 85%) | 5 (Level 5: growth control rate is above 85%) |  |
| Cc1cc(C)n(C(=O)[C@@H](C)O/N=C/c2cc(-n3c(=O)cc(C(F)(F)F)n(C)c3=O)c(F)cc2Cl)n1 [424(R)] |  |  |  |  |  |  | Weeding effect in post-emergence stage, Alopecurus japonicus (level) (Alopecurus japonicus; Dose 30 g/ha): 5 (Level 5: growth control rate is above 85%); Weeding effect in post-emergence stage, Digitaria sanguinalis (level) (Digitaria sanguinalis; Dose 30 g/ha): 5 (Level 5: growth control rate is above 85%); Weeding effect in post-emergence stage, Eleusine indica (level) (Eleusine indica; Dose 30 g/ha): 5 (Level 5: growth control rate is above 85%); Weeding effect in post-emergence stage, Abutilon theophrasti (level) (Abutilon theophrasti; Dose 30 g/ha): 5 (Level 5: growth control rate is above 85%); Weeding effect in post-emergence stage, Setaria viridis (level) (Setaria viridis; Dose 30 g/ha): 5 (Level 5: growth control rate is above 85%); Weeding effect in post-emergence stage, Echinochloa crusgalli (level) (Echinochloa crusgalli; Dose 30 g/ha): 5 (Level 5: growth control rate is above 85%) |
| CCn1c(C(F)(F)F)cc(=O)n(-c2cc(/C=N/O[C@H](C)C(=O)OC)c(Cl)cc2F)c1=O [426(R)] |  |  |  |  |  |  | Weeding effect in post-emergence stage, Alopecurus japonicus (level) (Alopecurus japonicus; Dose 250 g/ha): 5 (Level 5: growth control rate is above 85%); Weeding effect in post-emergence stage, Digitaria sanguinalis (level) (Digitaria sanguinalis; Dose 250 g/ha): 5 (Level 5: growth control rate is above 85%); Weeding effect in post-emergence stage, Eleusine indica (level) (Eleusine indica; Dose 250 g/ha): 5 (Level 5: growth control rate is above 85%); Weeding effect in post-emergence stage, Abutilon theophrasti (level) (Abutilon theophrasti; Dose 250 g/ha): 5 (Level 5: growth control rate is above 85%); Weeding effect in post-emergence stage, Setaria viridis (level) (Setaria viridis; Dose 250 g/ha): 5 (Level 5: growth control rate is above 85%); Weeding effect in post-emergence stage, Echinochloa crusgalli (level) (Echinochloa crusgalli; Dose 250 g/ha): 5 (Level 5: growth control rate is above 85%) |
| C[C@@H](O/N=C/c1cc(-n2c(=O)n(C)c(=S)n(C)c2=O)c(F)cc1Cl)C(=O)O [438(R)] |  |  |  |  |  |  | Weeding effect in post-emergence stage, Alopecurus japonicus (level) (Alopecurus japonicus; Dose 30 g/ha): 5 (Level 5: growth control rate is above 85%); Weeding effect in post-emergence stage, Digitaria sanguinalis (level) (Digitaria sanguinalis; Dose 30 g/ha): 5 (Level 5: growth control rate is above 85%); Weeding effect in post-emergence stage, Eleusine indica (level) (Eleusine indica; Dose 30 g/ha): 5 (Level 5: growth control rate is above 85%); Weeding effect in post-emergence stage, Abutilon theophrasti (level) (Abutilon theophrasti; Dose 30 g/ha): 5 (Level 5: growth control rate is above 85%); Weeding effect in post-emergence stage, Setaria viridis (level) (Setaria viridis; Dose 30 g/ha): 5 (Level 5: growth control rate is above 85%); Weeding effect in post-emergence stage, Echinochloa crusgalli (level) (Echinochloa crusgalli; Dose 30 g/ha): 5 (Level 5: growth control rate is above 85%) |
| C[C@@H](O/N=C/c1cc(-n2c(=O)n(C)c(=S)n(C)c2=O)c(F)cc1Cl)C(=O)OCC(F)(F)F [439(R)] |  |  |  |  |  |  | Weeding effect in post-emergence stage, Alopecurus japonicus (level) (Alopecurus japonicus; Dose 30 g/ha): 5 (Level 5: growth control rate is above 85%); Weeding effect in post-emergence stage, Digitaria sanguinalis (level) (Digitaria sanguinalis; Dose 30 g/ha): 5 (Level 5: growth control rate is above 85%); Weeding effect in post-emergence stage, Eleusine indica (level) (Eleusine indica; Dose 30 g/ha): 5 (Level 5: growth control rate is above 85%); Weeding effect in post-emergence stage, Abutilon theophrasti (level) (Abutilon theophrasti; Dose 30 g/ha): 5 (Level 5: growth control rate is above 85%); Weeding effect in post-emergence stage, Setaria viridis (level) (Setaria viridis; Dose 30 g/ha): 5 (Level 5: growth control rate is above 85%); Weeding effect in post-emergence stage, Echinochloa crusgalli (level) (Echinochloa crusgalli; Dose 30 g/ha): 5 (Level 5: growth control rate is above 85%) |
| C#CCCOC(=O)[C@@H](C)O/N=C/c1cc(-n2c(=O)cc(C(F)(F)F)n(C)c2=O)c(F)cc1Cl [442(R)] | 5 (Level 5: growth control rate is above 85%) | 5 (Level 5: growth control rate is above 85%) | 5 (Level 5: growth control rate is above 85%) | 5 (Level 5: growth control rate is above 85%) | 5 (Level 5: growth control rate is above 85%) | 5 (Level 5: growth control rate is above 85%) |  |
| CC(C#N)OC(=O)[C@@H](C)O/N=C/c1cc(-n2c(=O)cc(C(F)(F)F)n(C)c2=O)c(F)cc1Cl (stereo partly drawn) [443(R)] | 5 (Level 5: growth control rate is above 85%) | 5 (Level 5: growth control rate is above 85%) | 5 (Level 5: growth control rate is above 85%) | 5 (Level 5: growth control rate is above 85%) | 5 (Level 5: growth control rate is above 85%) | 5 (Level 5: growth control rate is above 85%) |  |
| CC(CC#N)OC(=O)[C@@H](C)O/N=C/c1cc(-n2c(=O)cc(C(F)(F)F)n(C)c2=O)c(F)cc1Cl (stereo partly drawn) [444(R)] | 5 (Level 5: growth control rate is above 85%) | 5 (Level 5: growth control rate is above 85%) | 5 (Level 5: growth control rate is above 85%) | 5 (Level 5: growth control rate is above 85%) | 5 (Level 5: growth control rate is above 85%) | 5 (Level 5: growth control rate is above 85%) |  |
| CC(C#N)COC(=O)[C@@H](C)O/N=C/c1cc(-n2c(=O)cc(C(F)(F)F)n(C)c2=O)c(F)cc1Cl (stereo partly drawn) [445(R)] | 5 (Level 5: growth control rate is above 85%) | 5 (Level 5: growth control rate is above 85%) | 5 (Level 5: growth control rate is above 85%) | 5 (Level 5: growth control rate is above 85%) | 5 (Level 5: growth control rate is above 85%) | 5 (Level 5: growth control rate is above 85%) |  |
| C[C@@H](O/N=C/c1cc(-n2c(=O)cc(C(F)(F)F)n(C)c2=O)c(F)cc1Cl)C(=O)OCCCC#N [446(R)] | 5 (Level 5: growth control rate is above 85%) | 5 (Level 5: growth control rate is above 85%) | 5 (Level 5: growth control rate is above 85%) | 5 (Level 5: growth control rate is above 85%) | 5 (Level 5: growth control rate is above 85%) | 5 (Level 5: growth control rate is above 85%) |  |
| C[C@@H](O/N=C/c1cc(-n2c(=O)cc(C(F)(F)F)n(C)c2=O)c(F)cc1Cl)C(=O)OCC1(C#N)CC1 [447(R)] | 5 (Level 5: growth control rate is above 85%) | 5 (Level 5: growth control rate is above 85%) | 5 (Level 5: growth control rate is above 85%) | 5 (Level 5: growth control rate is above 85%) | 5 (Level 5: growth control rate is above 85%) | 5 (Level 5: growth control rate is above 85%) |  |
| C[C@@H](O/N=C/c1cc(-n2c(=O)cc(C(F)(F)F)n(C)c2=O)c(F)cc1Cl)C(=O)OCCN(C)C [448(R)] | 5 (Level 5: growth control rate is above 85%) | 5 (Level 5: growth control rate is above 85%) | 5 (Level 5: growth control rate is above 85%) | 5 (Level 5: growth control rate is above 85%) | 5 (Level 5: growth control rate is above 85%) | 5 (Level 5: growth control rate is above 85%) |  |
| C/C(=N\OC(=O)[C@@H](C)O/N=C/c1cc(-n2c(=O)cc(C(F)(F)F)n(C)c2=O)c(F)cc1Cl)C(C)(C)C [449(R)] | 5 (Level 5: growth control rate is above 85%) | 5 (Level 5: growth control rate is above 85%) | 5 (Level 5: growth control rate is above 85%) | 5 (Level 5: growth control rate is above 85%) | 5 (Level 5: growth control rate is above 85%) | 5 (Level 5: growth control rate is above 85%) |  |
